{
  "source": "patent US20260224590A1",
  "about": "(priority 2023, published 2026)",
  "key": {"C57BL/6J mice": {"system": "C57BL/6J mice", "assay": "head-twitch response in mice (hallucinogenic effects)", "assay_type": "in vivo", "details": "intraperitoneal injection, first 30 minutes, all doses tested", "description": "Method: The head-twitch response in mice was detected via oscillatory signals to characterize hallucinogenic effects. Mice (strain C57BL/6J, purchased from Shanghai Lingchang Biotech Co., Ltd.) were anesthetized with 2% isoflurane. A small portion of the scalp was removed from the center of the dorsal cranium. A custom-made small neodymium magnet (4 mm×4 mm×2 mm) was attached to the center of the dorsal cranium using dental resin. The magnet N-S poles were kept parallel to the dorsoventral aspect of the implant. The mice were allowed to recover for 1 week before testing. To record precise head movements, the mice were placed in a glass beaker with a diameter of 12 cm, surrounded by 150 turns of #30 enameled copper wire. The output signal from the coil was recorded using a PowerLab/4SP instrument installed with LabChart V8.1.16 software. Coil voltage was amplified, low-pass filtered at 10 kHz to remove radio frequency interference, and sampled at 40 kHz. For the detection of head-twitch response in mice, LabChart data were processed with a digital band-pass filter at 40 to 200 Hz. The head-twitch response in mice was identified by searching for sinusoidal wavelets that met the following criteria: 1) containing more than two bipolar peaks; 2) amplitude exceeding background noise level; 3) duration less than 120 milliseconds. 1 hour prior to the test, the mice were transferred to the test room for acclimatization. Subsequently, the mice were placed in the beaker for 30 minutes, and baseline head-twitch response values were recorded. Immediately after baseline recording, the mice were injected intraperitoneally with the test compound, and head-twitch response values were recorded for 1 to 2 hours post-dose, depending on the compound used. Statistical values were taken from the first 30 minutes."}, "[1]": {"system": "C57BL/6 mice, corticosterone in drinking water", "assay": "tail suspension test after 21 days of corticosterone exposure", "assay_type": "in vivo", "details": "corticosterone model", "description": "Antidepressant efficacy test method: Male C57BL/6 mice (8 weeks old, purchased from Shanghai Lingchang Biotech Co., Ltd.) were administered a solution of corticosterone in their drinking water at a concentration of 25 μg/mL using drinking water bottles for 21 days. Mice were maintained on a 12-hour light cycle. Corticosterone-containing drinking water was refreshed every other day for the first two weeks, and gradually replaced with corticosterone-free drinking water every two days for the last week. […] TST procedure: mice in the control group and the administration group were suspended by their tails with tape for 6 minutes, and their behavior was recorded by a video camera. The immobility time during the last 4 minutes was manually timed and assessed by an observer who was unaware of the treatment conditions."}, "in vivo": {"assay": "in vivo", "details": "male, C57, mouse, plasma, ip, 5 mg/kg", "quoted_text": "The concentration of the compound in mouse plasma was determined using LC-MS/MS, and the relevant pharmacokinetic parameters were calculated to investigate the pharmacokinetic characteristics of the compound in mice.\nExperimental design: 60 male C57 mice (purchased from Suzhou JOINN Laboratory Animal Co., Ltd.) were randomly divided into groups based on weight, with 3 mice per group. The mice were fasted with water ad libitum for 12 to 14 hours one day before test-article administration and fed 4 hours after the administration. The route of administration was intraperitoneal (IP), with a dosing concentration of 1 mg/mL, and a solvent formulation of 10% DMSO+90% saline.\nSample collection: 0.1 mL of blood was collected from the orbit under isoflurane anesthesia before and after test-article administration, transferred to EDTA K2 tubes, and placed on an ice bath. The samples were centrifuged at 5000 rpm for 10 minutes at 4° C., and the plasma was collected. […] Prior to analysis, all plasma samples were stored at −80° C.\nData processing: Drug concentrations in plasma and brain tissues were measured using LC-MS (API4000QTRAP triple quadrupole tandem mass spectrometer, equipped with an electrospray ionization source (ESI)). The data collection and control system software utilized was Analyst 1.5.1 (Applied Biosystems). The sample peak integration in the spectrum was conducted automatically; the ratio of the sample peak area to the internal standard peak area was used as an indicator to perform regression with the concentration of the sample. Regression method: Linear regression with a weighting factor of 1/X^2. Pharmacokinetic parameters were analyzed using a non-compartmental model in WinNonlin Professional v6.3 (Pharsight, USA). Cmax is the measured maximum plasma concentration, the area under the plasma concentration-time curve (AUC(0→t)) was calculated by the trapezoidal method, and Tmax is the time to reach peak plasma concentration after administration. Experimental data are presented as “Mean±Standard Deviation” (Mean±SD, n≥3) or “Mean” (n=2)."}, "5-HT2A receptor": {"target": "5-HT2A receptor (Homo sapiens, UniProt P28223)", "sequence (P28223 whole entry)": "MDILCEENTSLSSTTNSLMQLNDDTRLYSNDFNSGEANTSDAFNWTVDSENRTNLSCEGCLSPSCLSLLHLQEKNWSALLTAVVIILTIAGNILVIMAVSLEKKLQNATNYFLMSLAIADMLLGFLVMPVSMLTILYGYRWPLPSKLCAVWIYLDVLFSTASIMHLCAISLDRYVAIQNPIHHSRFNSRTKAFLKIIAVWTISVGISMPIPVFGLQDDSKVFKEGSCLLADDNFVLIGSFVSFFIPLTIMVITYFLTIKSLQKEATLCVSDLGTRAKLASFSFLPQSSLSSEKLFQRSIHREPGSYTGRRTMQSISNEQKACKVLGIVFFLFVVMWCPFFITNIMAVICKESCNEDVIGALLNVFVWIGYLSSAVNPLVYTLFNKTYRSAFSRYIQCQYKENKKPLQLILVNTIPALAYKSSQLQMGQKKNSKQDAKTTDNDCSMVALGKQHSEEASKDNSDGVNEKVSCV", "assay": "5-HT2A receptor downstream β-arrestin2 recruitment in HEK-293T cells", "assay_type": "cell-based", "design": "expressed in transfected cells; host or cells: HEK-293T (ATCC, CRL-11268)", "details": "HEK-293T; percentage printed in parentheses beside the nM value, not defined", "description": "On the second day, the confluent cells from a 6 cm culture dish were digested and reseeded into a 96-well plate at a volume of 100 μL of culture medium per well. On the third day, the drugs were added for testing. The 96-well plate was taken out from the cell incubator to decant the culture medium. 40 μL of the substrate coelenterazine 400a (final concentration 5 μM) was added to each well, and then 20 μL of different drugs were added sequentially from left to right, ensuring that the final concentration of the drug decreased gradually from bottom to top, with two replicates per treatment. Finally, the prepared samples were loaded on a plate reader for signal quantification. The readout values reflected the recruitment of β-arrestin2 to the membrane or the dissociation of G protein trimer. The former indicated the degree of activation of the downstream β-arrestin2 signaling pathway mediated by the 5-HT2A receptor, and the latter indicated the degree of activation of the downstream G protein signaling pathway mediated by the 5-HT2A receptor."}},
  "data": [
    {"smiles": "COc1ccccc1CCCN1CCC2C(C1)c1cccc3c1N2CCO3", "note": "(single isomer, unassigned) [I-23]", "values": [
      {"measurement": "hallucinogenic effects (head-twitch response)", "setting": "C57BL/6J mice", "result": "did not induce hallucinogenic effects"},
      {"measurement": "antidepressant effect in the mouse tail suspension test", "setting": "[1]; 10 mg/kg single injection, after 7 days", "result": "remained significant"},
      {"measurement": "antidepressant effect in the mouse tail suspension test", "setting": "[1]; 10 mg/kg single injection, after 14 days", "result": "remained significant"},
      {"measurement": "antidepressant effect in the mouse tail suspension test", "setting": "[1]; one day after a single administration", "result": "significant antidepressant effect"},
      {"measurement": "AUC0-inf", "setting": "in vivo", "result": 540, "unit": "ng·h/mL"},
      {"measurement": "β-arrestin2 signaling agonistic activity (% in parentheses)", "setting": "5-HT2A receptor", "result": "(51.6%)"}
    ]}
  ]
}
